Reference: patent US20210155611A1, “THE SALTS OF A COMPOUND AND THE CRYSTALLINE FORMS THEREOF” (Flutchison Medipharma Limited, priority 2017, published 2021)
≈ marks a conversion by molar mass, not a printed value. Entries after “also recorded” stand apart in the source; their conditions may differ.

Legend:
Assay type in all cases: physicochemical
[1] = Solubility test of Form I and free base in different dissolution media; conditions: for solubility at 24 h: thermodynamic from solid, saturated for 24 hours
Experimental: Determination method: excess amount of Form I sample of compound of Formula A and its free base (compound 4-ethyl-N-(4-((3-ethynylphenyl)amino)-7-methoxyquinazolin-6-yl) piperazine-1-carboxamide) were suspended in different dissolution media respectively, and saturated for 24 hours under shaking at constant temperature, then filtered. The filtrates were used for determining solubility of the samples. The buffers of different pH, simulated gastric fluid, and simulated intestinal fluid were prepared according to the US pharmacopeia (USP40-NF35).

[2] = Stability of Form I under high temperature, high humidity and illumination conditions; conditions: for Purity A %: HPLC
Experimental: Determination method: the test sample of Form I of compound of Formula A was placed on a culture dish, which was uncovered and placed in sealed clean containers. The containers were placed under a temperature of 60° C. and an illumination of 4500 lx±500 lx respectively for 10 days; or the containers were placed under a temperature of 25° C. and a relative humidity of 92.5%%±5% and under a temperature of 40° C. and a relative humidity of 75%±5% respectively for 2 weeks.
Then sampled and investigated for the purity (using HPLC analysis) and crystalline form (using X-ray powder diffraction analysis) of the sample.

[3] = Hygroscopicity of Form I
Experimental: Determination method: the test sample of Form I was weighed and placed on a culture dish, which was uncovered and placed in a sealed clean container with the relative humidity of 92.5%. Then the container was placed at room temperature for 10 days. Then sampled, weighed the sample after placed for 10 days, and compared with the weight of the sample before the test. Thereby the percentage of weight gain by hygroscopicity of the sample was calculated. The crystalline form was also investigated (using X-ray powder diffraction analysis).

[4] = aqueous buffer, pH 1.2 buffer, 25° C.
[5] = aqueous buffer, pH 2.1 buffer, 25° C.
[6] = aqueous buffer, pH 4.5 buffer, 25° C.
[7] = aqueous buffer, pH 6.8 buffer, 25° C.
[8] = aqueous buffer, pH 7.4 buffer, 25° C.
[9] = fassgf or other biorelevant, Simulated intestinal fluid (SIF), 20° C.
[10] = Simulated gastric fluid (SGF), 20° C.

Row | Compound | solubility at 24 h [1, 4] | solubility at 24 h [1, 5] | solubility at 24 h [1, 6] | solubility at 24 h [1, 7] | solubility at 24 h [1, 8] | solubility at 24 h ([1]; aqueous buffer, pH 8.0 buffer, 25° C.) | solubility at 24 h [1, 9] | solubility at 24 h ([1]; Distilled water, 20° C.) | solubility at 24 h [1, 10] | Purity A % ([2]; 0 day (Table 1)) | Purity A % ([2]; 0 day (Table 2)) | Purity A % ([2]; 60° C., 10 days) | Purity A % ([2]; 75 ± 5% RH/40° C., 2 weeks) | Purity A % ([2]; 92.5 ± 5% RH/25° C., 2 weeks) | Purity A % ([2]; 4500 lx ± 500 lx, 10 days) | Stability (chemical purity and crystalline form), conclusion in words ([2]; high temperature and illumination 10 days, high humidity 2 weeks) | Crystal form after 10 days ([3]; 92.5% RH, 25° C., 10 days, X-ray powder diffraction) | Weight gain after 10 days (%) ([3]; 92.5% RH, 25° C., 10 days, succinate) | Hygroscopicity, conclusion in words ([3]; high humidity condition for 10 days) | Solubility compared with that of the free base, in words ([1]; data of Table 4, succinate)
1 | C#Cc1cccc(Nc2ncnc3cc(OC)c(NC(=O)N4CCN(CC)CC4)cc23)c1.O=C(O)CCC(=O)O [Form I, 4-ethyl-N-(4-((3-ethynylphenyl)amino)-7-methoxyquinazolin-6-yl)piperazine-1-carboxamide succinate] | 103000 µg/mL | 15500 µg/mL | 10000 µg/mL | 253 µg/mL | 46.1 µg/mL | 0.5 µg/mL | 253 µg/mL | 803 µg/mL | 103000 µg/mL | 99.37% | 98.98% | 98.68% | 99.08% | 98.98% | 99.29% | stable | not changed | 0.01% | non-hygroscopic | –
2 | C#Cc1cccc(Nc2ncnc3cc(OC)c(NC(=O)N4CCN(CC)CC4)cc23)c1.O=C(O)CCC(=O)O [compound of Formula A, 4-ethyl-N-(4-((3-ethynylphenyl)amino)-7-methoxyquinazolin-6-yl)piperazine-1-carboxamide succinate] | – | – | – | – | – | – | – | – | – | – | – | – | – | – | – | – | – | – | – | significantly increased; also recorded: significantly higher
3 | C#Cc1cccc(Nc2ncnc3cc(OC)c(NC(=O)N4CCN(CC)CC4)cc23)c1 [free base, 4-ethyl-N-(4-((3-ethynylphenyl)amino)-7-methoxyquinazolin-6-yl)piperazine-1-carboxamide] | 38500 µg/mL (≈ 89400 µM) | 5450 µg/mL (≈ 12700 µM) | 5.21 µg/mL (≈ 12.1 µM) | 0.84 µg/mL (≈ 1.95 µM) | 0.41 µg/mL (≈ 0.952 µM) | – | 0.84 µg/mL (≈ 1.95 µM) | 1 µg/mL (≈ 2.32 µM) | 38500 µg/mL (≈ 89400 µM) | – | – | – | – | – | – | – | – | – | – | –
